Molecular target: T1, Human BCL6 protein (N-terminal HiBiT tagged BCL6 in HT1080 cells) (Homo sapiens, UniProt P41182+Q96SW2)
T1 construct: Human BCL6 protein coding open reading frame; expressed in transfected cells; host or cells: HT1080 (ATCC CCL-121), stably transduced with lentivirus pLV-UBC-N-HiBiT-BCL6-PGK-puro
Test: HiBiT based BCL6 degradation assay
Format: cell-based
Settings: HT1080 cells expressing N-terminal HiBiT tagged BCL6; 5 hours incubation; BCL6 degradation normalized with DMSO control
In short: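 HT1080 cells stably expressing N-terminal HiBiT-BCL6 were treated with compound dilution series for 5 h at 37° C. in RPMI 1640 with 10% FBS. HiBiT lytic luminescence read after 15 min; degradation normalized to DMSO, with curves fitted by four-parameter logistic model.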

SMILES	Ymin (5 hr)
CNC(=O)COc1cc2cc(Nc3nc(N4CC5(CCC(Nc6cccc7c(C8CCC(=O)NC8=O)nn(C)c67)CC5)C4)ncc3Cl)ccc2n(C)c1=O (centres unmarked) [Compound 342, 2-((6-((5-chloro-2-(7-((3-(2,6-dioxopiperidin-3-yl)-1-methyl-1H-indazol-7-yl)amino)-2-azaspiro[3.5]nonan-2-yl)pyrimidin-4-yl)amino)-1-methyl-2-oxo-1,2-dihydroquinolin-3-yl)oxy)-N-methylacetamide]	+++ (25% < Ymin ≤ 50%)
CNC(=O)COc1cc2cc(Nc3nc(N4CCN(CC5CCN(c6cccc7c(C8CCC(=O)NC8=O)nn(C)c67)CC5)CC4)ncc3Cl)ccc2n(C(C)C)c1=O (centres unmarked) [Compound 107, 2-((6-((5-chloro-2-(4-((1-(3-(2,6-dioxopiperidin-3-yl)-1-methyl-1H-indazol-7-yl)piperidin-4-yl)methyl)piperazin-1-yl)pyrimidin-4-yl)amino)-1-isopropyl-2-oxo-1,2-dihydroquinolin-3-yl)oxy)-N-methylacetamide]	++++ (Ymin ≤ 25%)
CNC(=O)COc1cc2cc(Nc3nc(N4CCN(C[C@H]5CCN(c6ccc7c(C8CCC(=O)NC8=O)nn(C)c7c6)C5)CC4)ncc3Cl)ccc2n(C)c1=O (stereo partly drawn) [Compound 306a, 2-((6-((5-chloro-2-(4-(((3R)-1-(3-(2,6-dioxopiperidin-3-yl)-1-methyl-1H-indazol-6-yl)pyrrolidin-3-yl)methyl)piperazin-1-yl)pyrimidin-4-yl)amino)-1-methyl-2-oxo-1,2-dihydroquinolin-3-yl)oxy)-N-methylacetamide]	+++ (25% < Ymin ≤ 50%)
CNC(=O)COc1cc2cc(Nc3nc(NCc4ccc(CNc5cccc6c(C7CCC(=O)NC7=O)nn(C)c56)cc4)ncc3Cl)ccc2n(C)c1=O (centres unmarked) [Compound 318, 2-((6-((5-chloro-2-((4-(((3-(2,6-dioxopiperidin-3-yl)-1-methyl-1H-indazol-7-yl)amino)methyl)benzyl)amino)pyrimidin-4-yl)amino)-1-methyl-2-oxo-1,2-dihydroquinolin-3-yl)oxy)-N-methylacetamide]	++ (50% < Ymin ≤ 70%)
CNC(=O)COc1cc2cc(Nc3nc(NC[C@H]4CC[C@@H](CNc5cccc6c(C7CCC(=O)NC7=O)nn(C)c56)CC4)ncc3Cl)ccc2n(C)c1=O (some centres unmarked) [Compound 297a, 2-((6-((5-chloro-2-((((1s,4s)-4-(((3-(2,6-dioxopiperidin-3-yl)-1-methyl-1H-indazol-7-yl)amino)methyl)cyclohexyl)methyl)amino)pyrimidin-4-yl)amino)-1-methyl-2-oxo-1,2-dihydroquinolin-3-yl)oxy)-N-methylacetamide]	++ (50% < Ymin ≤ 70%)
CNC(=O)COc1cc2cc(Nc3nc(N4CCC[C@@H]4CNc4cccc5c(C6CCC(=O)NC6=O)nn(C)c45)ncc3Cl)ccc2n(C)c1=O (stereo partly drawn) [Compound 300a, 2-((6-((5-chloro-2-((2R)-2-(((3-(2,6-dioxopiperidin-3-yl)-1-methyl-1H-indazol-7-yl)amino)methyl)pyrrolidin-1-yl)pyrimidin-4-yl)amino)-1-methyl-2-oxo-1,2-dihydroquinolin-3-yl)oxy)-N-methylacetamide]	++ (50% < Ymin ≤ 70%)
CNC(=O)COc1cc2cc(Nc3nc(N4C[C@@H](C)N(CC5CCN(c6cccc7c(C8CCC(=O)NC8=O)nn(C)c67)CC5)[C@@H](C)C4)ncc3Cl)ccc2n(C)c1=O (stereo partly drawn) [Compound 336a, 2-((6-((5-chloro-2-((3S,5R)-4-((1-(3-(2,6-dioxopiperidin-3-yl)-1-methyl-1H-indazol-7-yl)piperidin-4-yl)methyl)-3,5-dimethylpiperazin-1-yl)pyrimidin-4-yl)amino)-1-methyl-2-oxo-1,2-dihydroquinolin-3-yl)oxy)-N-methylacetamide]	++++ (Ymin ≤ 25%)
CNC(=O)COc1cc2cc(Nc3nc(N4CCC[C@H](CN(C)c5cccc6c(C7CCC(=O)NC7=O)nn(C)c56)C4)ncc3Cl)ccc2n(C)c1=O (stereo partly drawn) [Compound 299a, 2-((6-((5-chloro-2-((3R)-3-(((3-(2,6-dioxopiperidin-3-yl)-1-methyl-1H-indazol-7-yl)(methyl)amino)methyl)piperidin-1-yl)pyrimidin-4-yl)amino)-1-methyl-2-oxo-1,2-dihydroquinolin-3-yl)oxy)-N-methylacetamide]	+++ (25% < Ymin ≤ 50%)
CNC(=O)COc1cc2cc(Nc3nc(NC[C@H]4CCCN(c5cccc6c(C7CCC(=O)NC7=O)nn(C)c56)C4)ncc3Cl)ccc2n(C)c1=O (stereo partly drawn) [Compound 303b, 2-((6-((5-chloro-2-((((3R)-1-(3-(2,6-dioxopiperidin-3-yl)-1-methyl-1H-indazol-7-yl)piperidin-3-yl)methyl)amino)pyrimidin-4-yl)amino)-1-methyl-2-oxo-1,2-dihydroquinolin-3-yl)oxy)-N-methylacetamide]	++ (50% < Ymin ≤ 70%)
CNC(=O)COc1cc2cc(Nc3nc(N4CCC[C@H]4CNc4cccc5c(C6CCC(=O)NC6=O)nn(C)c45)ncc3Cl)ccc2n(C)c1=O (stereo partly drawn) [Compound 300b, 2-((6-((5-chloro-2-((2S)-2-(((3-(2,6-dioxopiperidin-3-yl)-1-methyl-1H-indazol-7-yl)amino)methyl)pyrrolidin-1-yl)pyrimidin-4-yl)amino)-1-methyl-2-oxo-1,2-dihydroquinolin-3-yl)oxy)-N-methylacetamide]	+ (Ymin > 70%)
CNC(=O)COc1cc2cc(Nc3nc(NC[C@H]4CCCN(c5ccc6c(C7CCC(=O)NC7=O)nn(C)c6c5)C4)ncc3Cl)ccc2n(C)c1=O (stereo partly drawn) [Compound 295a, 2-((6-((5-chloro-2-((((3R)-1-(3-(2,6-dioxopiperidin-3-yl)-1-methyl-1H-indazol-6-yl)piperidin-3-yl)methyl)amino)pyrimidin-4-yl)amino)-1-methyl-2-oxo-1,2-dihydroquinolin-3-yl)oxy)-N-methylacetamide]	++ (50% < Ymin ≤ 70%)
CNC(=O)COc1cc2cc(Nc3nc(NC[C@H]4CC[C@@H](CNc5ccc6c(C7CCC(=O)NC7=O)nn(C)c6c5)CC4)ncc3Cl)ccc2n(C)c1=O (some centres unmarked) [Compound 293a, 2-((6-((5-chloro-2-((((1s,4s)-4-(((3-(2,6-dioxopiperidin-3-yl)-1-methyl-1H-indazol-6-yl)amino)methyl)cyclohexyl)methyl)amino)pyrimidin-4-yl)amino)-1-methyl-2-oxo-1,2-dihydroquinolin-3-yl)oxy)-N-methylacetamide]	+++ (25% < Ymin ≤ 50%)
CNC(=O)COc1cc2cc(Nc3cc(N4CCN(CC5CCN(c6cccc7c(C8CCC(=O)NC8=O)nn(C)c67)CC5)CC4)ncc3Cl)ccc2n(C)c1=O (centres unmarked) [Compound 346, 2-((6-((5-chloro-2-(4-((1-(3-(2,6-dioxopiperidin-3-yl)-1-methyl-1H-indazol-7-yl)piperidin-4-yl)methyl)piperazin-1-yl)pyridin-4-yl)amino)-1-methyl-2-oxo-1,2-dihydroquinolin-3-yl)oxy)-N-methylacetamide]	++++ (Ymin ≤ 25%)
CNC(=O)COc1cc2cc(Nc3nc(N4CCC(C(=O)N5CCN(c6ccc7c(C8CCC(=O)NC8=O)nn(C)c7c6)CC5)CC4)ncc3Cl)ccc2n(C)c1=O (centres unmarked) [Compound 328, 2-((6-((5-chloro-2-(4-(4-(3-(2,6-dioxopiperidin-3-yl)-1-methyl-1H-indazol-6-yl)piperazine-1-carbonyl)piperidin-1-yl)pyrimidin-4-yl)amino)-1-methyl-2-oxo-1,2-dihydroquinolin-3-yl)oxy)-N-methylacetamide]	++++ (Ymin ≤ 25%)

— patent US20250270191A1, “QUINOLONE BCL6 BIFUNCTIONAL DEGRADERS” (Treeline Biosciences, Inc., priority 2022, published 2025)
